Data taken from ChEMBL document CHEMBL3621135 (ACS Med Chem Lett, 2015).

What was measured:
[1] = biological target: Tyrosine-protein kinase JAK2 (Homo sapiens, UniProt O60674); test: Inhibition of recombinant JAK2 (unknown origin) using 5-FAM-KKKKEEIYFFFG-OH substrate and ATP incubated for 180 mins by […] method
[2] = biological target: Tyrosine-protein kinase JAK1 (Homo sapiens, UniProt P23458); test: Inhibition of recombinant JAK1 (unknown origin) using 5-FAM-KKKKEEIYFFFG-OH substrate and ATP incubated for 180 mins by […] method
Chain of Tyrosine-protein kinase JAK1 (P23458 whole entry): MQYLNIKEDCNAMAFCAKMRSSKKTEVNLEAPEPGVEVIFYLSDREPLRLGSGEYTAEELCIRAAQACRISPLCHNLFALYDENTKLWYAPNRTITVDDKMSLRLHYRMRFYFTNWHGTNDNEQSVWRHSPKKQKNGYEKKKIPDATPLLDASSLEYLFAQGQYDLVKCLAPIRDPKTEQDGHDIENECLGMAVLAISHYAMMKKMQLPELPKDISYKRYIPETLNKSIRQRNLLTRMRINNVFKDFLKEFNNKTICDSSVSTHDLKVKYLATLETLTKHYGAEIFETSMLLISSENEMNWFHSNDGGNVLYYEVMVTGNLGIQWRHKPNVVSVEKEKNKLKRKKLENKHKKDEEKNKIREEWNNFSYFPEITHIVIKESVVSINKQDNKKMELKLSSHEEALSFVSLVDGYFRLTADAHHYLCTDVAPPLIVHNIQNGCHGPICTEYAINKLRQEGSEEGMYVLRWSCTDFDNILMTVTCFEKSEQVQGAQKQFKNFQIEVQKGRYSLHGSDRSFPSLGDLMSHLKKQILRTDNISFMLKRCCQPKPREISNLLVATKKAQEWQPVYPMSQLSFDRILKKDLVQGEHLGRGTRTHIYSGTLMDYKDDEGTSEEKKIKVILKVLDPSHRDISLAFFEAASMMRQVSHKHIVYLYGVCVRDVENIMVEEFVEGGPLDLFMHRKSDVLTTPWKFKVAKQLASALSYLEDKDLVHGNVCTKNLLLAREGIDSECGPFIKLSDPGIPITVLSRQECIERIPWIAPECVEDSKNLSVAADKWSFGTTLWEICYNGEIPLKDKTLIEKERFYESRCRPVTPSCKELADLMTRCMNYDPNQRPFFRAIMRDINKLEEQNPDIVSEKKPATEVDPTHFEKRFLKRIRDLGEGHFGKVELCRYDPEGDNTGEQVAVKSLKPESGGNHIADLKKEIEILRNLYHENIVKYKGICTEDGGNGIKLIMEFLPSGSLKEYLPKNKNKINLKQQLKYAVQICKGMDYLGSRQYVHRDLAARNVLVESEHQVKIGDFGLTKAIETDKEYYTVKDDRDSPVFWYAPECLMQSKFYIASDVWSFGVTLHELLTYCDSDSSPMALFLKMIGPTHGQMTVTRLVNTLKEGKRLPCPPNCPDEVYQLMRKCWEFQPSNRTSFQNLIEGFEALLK

[3] = biological target: T1, Tyrosine-protein kinase JAK3 (Homo sapiens, UniProt P52333); test: Inhibition of recombinant JAK3 (unknown origin) using 5-FAM-KKKKEEIYFFFG-OH substrate and ATP incubated for 180 mins by […] method
T1 sequence (P52333 whole entry): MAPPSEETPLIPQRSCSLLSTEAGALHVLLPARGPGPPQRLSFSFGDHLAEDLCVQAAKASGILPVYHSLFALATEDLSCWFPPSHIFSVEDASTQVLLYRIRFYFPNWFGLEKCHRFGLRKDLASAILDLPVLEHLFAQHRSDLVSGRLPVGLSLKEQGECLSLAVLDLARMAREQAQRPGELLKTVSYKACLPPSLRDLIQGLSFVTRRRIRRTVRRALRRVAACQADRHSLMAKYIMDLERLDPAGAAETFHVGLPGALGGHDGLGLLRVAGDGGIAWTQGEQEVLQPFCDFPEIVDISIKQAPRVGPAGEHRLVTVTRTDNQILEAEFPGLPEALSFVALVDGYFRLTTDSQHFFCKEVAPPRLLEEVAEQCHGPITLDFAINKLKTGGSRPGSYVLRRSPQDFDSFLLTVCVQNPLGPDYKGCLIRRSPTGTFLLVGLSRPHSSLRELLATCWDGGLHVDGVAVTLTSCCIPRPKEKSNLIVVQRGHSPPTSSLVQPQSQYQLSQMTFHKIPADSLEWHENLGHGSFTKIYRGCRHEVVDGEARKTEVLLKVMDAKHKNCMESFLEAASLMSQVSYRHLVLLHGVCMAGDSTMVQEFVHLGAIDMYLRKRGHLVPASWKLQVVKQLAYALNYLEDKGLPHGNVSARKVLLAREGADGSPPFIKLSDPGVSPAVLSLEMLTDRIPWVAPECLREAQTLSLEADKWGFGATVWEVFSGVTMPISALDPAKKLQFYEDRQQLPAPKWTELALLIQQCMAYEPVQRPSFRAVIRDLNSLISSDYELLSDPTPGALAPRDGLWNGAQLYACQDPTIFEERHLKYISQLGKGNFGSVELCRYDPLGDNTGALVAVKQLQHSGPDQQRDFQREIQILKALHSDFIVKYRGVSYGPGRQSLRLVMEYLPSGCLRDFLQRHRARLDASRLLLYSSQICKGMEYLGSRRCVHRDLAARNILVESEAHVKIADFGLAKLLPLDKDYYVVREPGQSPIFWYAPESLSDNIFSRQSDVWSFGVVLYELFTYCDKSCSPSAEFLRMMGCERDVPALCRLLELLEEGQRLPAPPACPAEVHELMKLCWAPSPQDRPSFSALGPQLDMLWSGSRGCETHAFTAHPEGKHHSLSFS

[4] = Antiproliferative activity against human SET2 cells incubated for 72 hrs by [3H] thymidine incorporation assay; format: functional, cell-based; conditions: SET-2
[5] = tested on: Liver microsome; test: Drug metabolism in human liver microsomes assessed as thiourea formation at 10 uM in presence of NADPH by HPLC/UV/MS method; format: ADME
[6] = biological target: Non-receptor tyrosine-protein kinase TYK2 (Homo sapiens, UniProt P29597); test: Inhibition of recombinant TYK2 (unknown origin) by scintillation counting method
Chain of Non-receptor tyrosine-protein kinase TYK2 (P29597 whole entry): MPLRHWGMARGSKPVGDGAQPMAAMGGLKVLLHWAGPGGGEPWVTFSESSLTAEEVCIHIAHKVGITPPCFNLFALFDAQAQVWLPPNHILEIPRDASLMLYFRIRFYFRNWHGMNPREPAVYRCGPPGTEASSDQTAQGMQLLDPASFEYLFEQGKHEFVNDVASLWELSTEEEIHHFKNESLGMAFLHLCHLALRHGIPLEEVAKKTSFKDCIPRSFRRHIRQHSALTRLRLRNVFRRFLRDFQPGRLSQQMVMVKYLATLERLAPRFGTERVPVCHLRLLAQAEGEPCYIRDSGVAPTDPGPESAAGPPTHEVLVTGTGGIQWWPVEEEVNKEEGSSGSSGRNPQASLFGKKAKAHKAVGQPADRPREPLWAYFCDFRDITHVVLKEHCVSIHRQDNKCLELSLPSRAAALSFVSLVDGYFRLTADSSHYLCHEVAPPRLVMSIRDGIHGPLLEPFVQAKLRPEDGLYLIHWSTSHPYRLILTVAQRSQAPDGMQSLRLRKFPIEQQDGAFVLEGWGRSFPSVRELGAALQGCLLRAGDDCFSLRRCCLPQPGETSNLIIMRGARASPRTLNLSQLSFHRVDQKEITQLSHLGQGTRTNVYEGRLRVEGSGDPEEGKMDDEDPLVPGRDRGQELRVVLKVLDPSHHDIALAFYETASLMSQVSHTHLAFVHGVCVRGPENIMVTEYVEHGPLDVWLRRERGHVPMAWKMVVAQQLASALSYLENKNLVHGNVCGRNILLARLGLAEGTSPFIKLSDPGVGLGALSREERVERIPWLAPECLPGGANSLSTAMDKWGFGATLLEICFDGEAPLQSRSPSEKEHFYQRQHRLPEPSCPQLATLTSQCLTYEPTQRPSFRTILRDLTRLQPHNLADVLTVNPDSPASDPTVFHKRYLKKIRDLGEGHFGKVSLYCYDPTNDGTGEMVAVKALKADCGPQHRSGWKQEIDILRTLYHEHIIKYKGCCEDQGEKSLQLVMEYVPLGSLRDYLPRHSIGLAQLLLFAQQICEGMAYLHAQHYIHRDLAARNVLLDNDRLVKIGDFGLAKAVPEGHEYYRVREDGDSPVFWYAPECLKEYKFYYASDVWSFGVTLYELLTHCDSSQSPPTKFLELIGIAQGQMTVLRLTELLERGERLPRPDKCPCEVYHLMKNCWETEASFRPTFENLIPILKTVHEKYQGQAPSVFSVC

[7] = biological target: hERG (Homo sapiens, UniProt Q12809); test: Inhibition of human ERG channel at 30 uM
Chain of hERG (Q12809 whole entry): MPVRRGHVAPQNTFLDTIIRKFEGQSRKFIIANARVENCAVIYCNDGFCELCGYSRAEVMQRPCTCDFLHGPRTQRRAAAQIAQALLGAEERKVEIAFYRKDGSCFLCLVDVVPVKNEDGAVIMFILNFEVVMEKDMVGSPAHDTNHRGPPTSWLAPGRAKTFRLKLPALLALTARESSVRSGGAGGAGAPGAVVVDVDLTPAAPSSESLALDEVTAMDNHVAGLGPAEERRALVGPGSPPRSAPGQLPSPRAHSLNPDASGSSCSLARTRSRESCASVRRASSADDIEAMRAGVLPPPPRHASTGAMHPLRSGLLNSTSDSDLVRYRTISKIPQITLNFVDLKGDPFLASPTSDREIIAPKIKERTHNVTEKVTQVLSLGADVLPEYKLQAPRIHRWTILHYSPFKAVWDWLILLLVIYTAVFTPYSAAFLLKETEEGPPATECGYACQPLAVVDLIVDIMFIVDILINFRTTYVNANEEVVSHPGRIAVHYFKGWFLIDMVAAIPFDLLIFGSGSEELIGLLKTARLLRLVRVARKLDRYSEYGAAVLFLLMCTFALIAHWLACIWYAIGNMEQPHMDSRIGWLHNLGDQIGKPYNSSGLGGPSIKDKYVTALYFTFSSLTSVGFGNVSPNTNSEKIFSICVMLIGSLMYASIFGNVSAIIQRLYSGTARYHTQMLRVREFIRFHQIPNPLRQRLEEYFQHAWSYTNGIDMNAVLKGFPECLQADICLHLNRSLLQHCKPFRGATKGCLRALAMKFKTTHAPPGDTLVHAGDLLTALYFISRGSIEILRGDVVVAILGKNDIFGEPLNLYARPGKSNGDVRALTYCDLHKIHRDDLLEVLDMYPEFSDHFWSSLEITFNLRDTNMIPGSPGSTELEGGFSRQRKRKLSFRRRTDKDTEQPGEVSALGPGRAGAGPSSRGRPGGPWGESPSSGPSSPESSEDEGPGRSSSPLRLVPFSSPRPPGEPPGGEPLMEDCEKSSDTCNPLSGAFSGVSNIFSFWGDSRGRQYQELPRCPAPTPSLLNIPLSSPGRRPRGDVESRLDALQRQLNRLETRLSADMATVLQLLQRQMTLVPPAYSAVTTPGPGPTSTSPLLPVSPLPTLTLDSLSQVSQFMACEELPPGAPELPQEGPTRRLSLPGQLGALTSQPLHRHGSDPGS

Chain of Tyrosine-protein kinase JAK2 (O60674 whole entry): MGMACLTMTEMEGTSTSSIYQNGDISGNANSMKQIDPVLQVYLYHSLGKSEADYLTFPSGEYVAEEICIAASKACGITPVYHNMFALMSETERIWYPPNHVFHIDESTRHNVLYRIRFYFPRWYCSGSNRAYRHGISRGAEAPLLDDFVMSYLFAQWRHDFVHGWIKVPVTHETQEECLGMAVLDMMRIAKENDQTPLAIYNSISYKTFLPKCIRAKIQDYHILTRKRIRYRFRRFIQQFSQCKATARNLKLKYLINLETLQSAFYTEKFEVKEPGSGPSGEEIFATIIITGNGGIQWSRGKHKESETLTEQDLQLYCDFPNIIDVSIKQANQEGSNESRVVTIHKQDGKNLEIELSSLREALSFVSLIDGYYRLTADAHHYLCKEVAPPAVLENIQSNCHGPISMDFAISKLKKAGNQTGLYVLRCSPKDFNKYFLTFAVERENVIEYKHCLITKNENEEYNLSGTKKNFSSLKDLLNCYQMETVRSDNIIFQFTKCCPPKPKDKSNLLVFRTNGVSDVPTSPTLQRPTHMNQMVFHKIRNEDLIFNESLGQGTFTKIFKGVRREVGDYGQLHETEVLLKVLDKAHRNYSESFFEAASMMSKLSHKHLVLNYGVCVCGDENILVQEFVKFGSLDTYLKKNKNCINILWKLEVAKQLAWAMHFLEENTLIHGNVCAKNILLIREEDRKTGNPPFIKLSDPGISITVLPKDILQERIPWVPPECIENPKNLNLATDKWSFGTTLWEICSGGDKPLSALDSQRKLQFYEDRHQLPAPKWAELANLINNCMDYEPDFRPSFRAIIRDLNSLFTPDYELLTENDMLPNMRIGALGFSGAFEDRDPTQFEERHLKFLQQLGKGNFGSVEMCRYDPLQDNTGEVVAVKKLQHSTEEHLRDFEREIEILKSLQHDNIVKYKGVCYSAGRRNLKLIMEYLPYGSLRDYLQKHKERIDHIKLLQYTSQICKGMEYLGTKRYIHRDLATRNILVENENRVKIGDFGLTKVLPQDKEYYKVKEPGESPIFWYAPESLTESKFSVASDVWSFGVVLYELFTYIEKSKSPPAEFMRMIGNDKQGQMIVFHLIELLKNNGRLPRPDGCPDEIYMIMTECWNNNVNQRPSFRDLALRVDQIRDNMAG

| Compound | IC50 [1] | IC50 [2] | IC50 [3] | Drug metabolism [5] | IC50 [6] | IC50 [4] | inhibition at 30 µM [7] |
| --- | --- | --- | --- | --- | --- | --- | --- |
| CCc1nc(Nc2nc3c(cc(C(=O)N(C4CC4)C4CC4)n3CC)c3c2ncn3C)sc1C | 1.4 nM | 250 nM | 460 nM | – | – | 92 nM | – |
| CCn1c(C(=O)N(C2CC2)C2CC2)cc2c3c(ncn3C)c(Nc3nc(C(=O)NC)c(C)s3)nc21 | 3.1 nM | 22 nM | 49 nM | metabolite_detected | – | 100 nM | – |
| CCn1c(C(=O)N(C2CC2)C2CC2)cc2c3c(ncn3C)c(Nc3nc(C)c(S(C)(=O)=O)s3)nc21 | – | 40 nM | 52 nM | metabolite_detected | – | 51 nM | – |
| CCn1c(C(=O)N(C2CC2)C2CC2)cc2c3c(ncn3C)c(Nc3nc(C)c(C(=O)NC)s3)nc21 | 0.9 nM | 19 nM | 19 nM | metabolite_detected | – | 120 nM | – |
| CCn1c(C(=O)N(C2CC2)C2CC2)cc2c3c(ncn3C)c(Nc3nc(C)c(C(=O)N4CCS(=O)(=O)CC4)s3)nc21 | 0.7 nM | 48 nM | 31 nM | – | – | 330 nM | – |

The next lines start with results.

| IC50 [1] | IC50 [2] | IC50 [3] | Drug metabolism [5] | IC50 [6] | Compound | IC50 [4] | inhibition at 30 µM [7] |
| --- | --- | --- | --- | --- | --- | --- | --- |
| – | 330 nM | 210 nM | – | 220 nM | CCn1nc(Nc2nc3c(cc(C(=O)N(C4CC4)C4CC4)n3CC)c3c2ncn3C)cc1C | 55 nM | 75% |
| 33 nM | 6000 nM | 3800 nM | – | – | CCn1c(C(=O)N(C2CC2)C2CC2)cc2c3c(ncn3C)c(Nc3nc(C)n(C)n3)nc21 | 1300 nM | – |
| 1.2 nM | 16 nM | 87 nM | – | 1.9 nM | CCn1c(C(=O)N(C2CC2)C2CC2)cc2c3c(ncn3C)c(Nc3cc(C)[nH]n3)nc21 | 53 nM | – |
| 230 nM | 540 nM | 5000 nM | – | 2300 nM | CCn1c(C(=O)N(C2CC2)C2CC2)cc2c3c(ncn3C)c(Nc3cc(C)nn3C)nc21 | > 2000 nM | – |
